In data set [1] the test system is hepatotoxicity produced by paracetamol. Briefly: Hepatotoxicity produced by paracetamol (CYP 450 bioactivation), LDH and GPT release in serum. It counts as in vivo. The conditions noted are these: paracetamol alone.
A further data set concerns the target T1, CYP 450 1A1 (Homo sapiens, UniProt P04798).
T1 sequence (P04798 1-512): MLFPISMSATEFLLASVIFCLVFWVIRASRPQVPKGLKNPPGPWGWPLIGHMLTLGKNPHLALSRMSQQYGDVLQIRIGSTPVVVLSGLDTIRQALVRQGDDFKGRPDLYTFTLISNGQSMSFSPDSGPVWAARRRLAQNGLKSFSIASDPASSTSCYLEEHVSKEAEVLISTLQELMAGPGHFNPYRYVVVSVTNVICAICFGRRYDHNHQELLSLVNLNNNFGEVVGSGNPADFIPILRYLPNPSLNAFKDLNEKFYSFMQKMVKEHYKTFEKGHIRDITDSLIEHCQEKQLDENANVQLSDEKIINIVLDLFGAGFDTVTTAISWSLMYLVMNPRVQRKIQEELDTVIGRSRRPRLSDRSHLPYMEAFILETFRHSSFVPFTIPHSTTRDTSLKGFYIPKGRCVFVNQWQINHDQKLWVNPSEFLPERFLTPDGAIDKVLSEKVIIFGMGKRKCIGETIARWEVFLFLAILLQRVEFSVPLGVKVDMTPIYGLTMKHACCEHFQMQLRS
The conditions noted are these: cited from earlier work.

In data set [2] the test system is hepatotoxicity produced by galactosamine. Description: Hepatotoxicity produced by galactosamine (not dependent on CYP 450 bioactivation), LDH and GPT leakage. The format is in vivo. The following applies: galactosamine alone.

The values that follow come from patent publication US7001619B2, “Hepatocurative effect of emblica officinalis against CYP 450 bio-activation hepatotoxicity of drugs” (Council of Scientific and Industrial Research, priority 2002, dated 2006).

Turning to `CC(=O)Nc1ccc(O)cc1` [paracetamol], the Toxicity in data set [1] was 93%.
`O=C(/C=C/C=C/c1ccc2c(c1)OCO2)N1CCCCC1` [piperine]: at CYP 450 1A1, the “inhibition of CYP 450 1A1 (in words)” value is “specific inhibitor of CYP 450 1A1”.
Regarding `N[C@H]1C(O)O[C@H](CO)[C@H](O)[C@@H]1O` (stereo partly drawn) [galactosamine], in data set [2], the Toxicity was 93%.
